How the values were obtained:
mTOR kinase = mTOR kinase (Homo sapiens (Human), UniProt P42345); test: mTOR kinase activity assay (TR-FRET, GFP-4EBP1 substrate); type: biochemical; conditions: read-out: Enzyme (mTOR) IC50
[1] = Pharmacokinetics after oral administration, Balb/c mice; type: in vivo; conditions: mouse, plasma, 10 mg/kg
Description: (§1) 4. […] Blood was sampled before the administration and at 0.25 h, 0.5 h, 1 h, 2 h, 4 h, 6 h, 8 h, and 24 h after the administration.

[2] = Pharmacokinetics after oral administration, SD rat; type: in vivo; conditions: plasma, 10 mg/kg
Description: as §1

Chain of mTOR kinase (P42345 1360-2549): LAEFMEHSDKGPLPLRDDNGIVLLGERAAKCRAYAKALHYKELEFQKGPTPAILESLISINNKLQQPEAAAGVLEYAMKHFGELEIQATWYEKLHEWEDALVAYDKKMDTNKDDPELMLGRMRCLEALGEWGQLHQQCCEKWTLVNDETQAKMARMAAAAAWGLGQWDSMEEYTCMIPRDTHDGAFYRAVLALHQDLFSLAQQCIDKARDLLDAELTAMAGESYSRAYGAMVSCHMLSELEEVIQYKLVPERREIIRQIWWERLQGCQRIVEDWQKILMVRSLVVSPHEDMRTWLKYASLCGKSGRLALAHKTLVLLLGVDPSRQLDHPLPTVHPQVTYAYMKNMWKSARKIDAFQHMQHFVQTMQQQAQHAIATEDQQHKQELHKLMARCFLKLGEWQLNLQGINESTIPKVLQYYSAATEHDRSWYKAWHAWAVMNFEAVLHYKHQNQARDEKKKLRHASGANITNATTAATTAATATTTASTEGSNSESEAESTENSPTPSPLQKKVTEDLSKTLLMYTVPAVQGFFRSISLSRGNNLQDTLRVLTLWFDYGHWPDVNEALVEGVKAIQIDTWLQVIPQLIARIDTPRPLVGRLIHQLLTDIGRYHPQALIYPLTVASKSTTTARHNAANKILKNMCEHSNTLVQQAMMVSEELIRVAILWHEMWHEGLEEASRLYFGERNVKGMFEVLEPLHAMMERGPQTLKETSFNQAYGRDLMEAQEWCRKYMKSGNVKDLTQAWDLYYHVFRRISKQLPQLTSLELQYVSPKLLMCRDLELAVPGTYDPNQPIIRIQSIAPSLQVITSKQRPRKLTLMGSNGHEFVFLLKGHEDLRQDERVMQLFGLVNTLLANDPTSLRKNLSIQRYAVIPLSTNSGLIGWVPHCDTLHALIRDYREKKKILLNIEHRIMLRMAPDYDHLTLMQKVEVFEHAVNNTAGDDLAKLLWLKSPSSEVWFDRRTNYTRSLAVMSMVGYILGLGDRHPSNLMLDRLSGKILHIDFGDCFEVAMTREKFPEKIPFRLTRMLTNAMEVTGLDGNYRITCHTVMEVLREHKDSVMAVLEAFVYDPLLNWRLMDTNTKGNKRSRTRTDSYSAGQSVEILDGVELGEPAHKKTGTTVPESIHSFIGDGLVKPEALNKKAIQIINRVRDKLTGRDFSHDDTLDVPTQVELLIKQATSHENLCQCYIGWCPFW

`Cn1cc(-c2ccc(-c3ccc4ncc5c(c4c3)n(C3CCCN(S(C)(=O)=O)C3)c(=O)n5C)cn2)cn1` (stereo not shown) [Example 3, 3-methyl-8-(6-(1-methyl-1H-pyrazol-4-yl)pyridin-3-yl)-1-(1-(methanesulfonyl)piperidin-3-yl)-1H-imidazo[4,5-c]quinolin-2(3H)-one] showed an IC50 (mTOR kinase) of less than 0.01 µM.

With `Cn1cc(-c2ccc(-c3ccc4ncc5c(c4c3)n([C@H]3CC[C@@H](O)CC3)c(=O)n5C)cn2)cn1` [Example 18, 1-((1s,4s)-4-hydroxycyclohexyl)-3-methyl-8-(6-(1-methyl-1H-pyrazol-4-yl)pyridin-3-yl)-1H-imidazo[4,5-c]quinolin-2(3H)-one] the IC50 (mTOR kinase) was less than 0.01 µM, the AUC [1] was 10 to 100 µg·h/mL and the Cmax [1] was 5 to 10 µg/mL. For the same compound, the half-life [1] was 1 to 4 h and the concentration at 6 h ([1]; 6 h) was 1 to 10 µM.

Compound `Cn1cc(-c2ccc(-c3ccc4ncc5c(c4c3)n([C@H]3CCN(S(C)(=O)=O)C3)c(=O)n5C)cn2)cn1` [Example 28, (S)-3-methyl-8-(6-(1-methyl-1H-pyrazol-4-yl)pyridin-3-yl)-1-(1-(methanesulfonyl)pyrrolidin-3-yl)-1H-imidazo[4,5-c]quinolin-2(3H)-one] has an IC50 (mTOR kinase) of less than 0.01 µM, an AUC [2] of 10 to 100 µg·h/mL and a Cmax [2] of 0.8 to 4 µg/mL. For the same compound, the half-life [2] was 4 to 10 h and the concentration at 6 h [2] was 1 to 10 µM.

In the case of `Cn1cc(-c2ccc(-c3ccc4ncc5c(c4c3)n([C@@H]3CCCN(S(C)(=O)=O)C3)c(=O)n5C)cn2)cn1` [Example 31, (R)-3-methyl-8-(6-(1-methyl-1H-pyrazol-4-yl)pyridin-3-yl)-1-(1-(methanesulfonyl)piperidin-3-yl)-1H-imidazo[4,5-c]quinolin-2(3H)-one], the IC50 (mTOR kinase) is reported as less than 0.01 µM, the AUC [2] is reported as 10 to 100 µg·h/mL and the Cmax [2] is reported as 0.8 to 4 µg/mL. It also gave a half-life [2] of 4 to 10 h and a concentration at 6 h [2] of 1 to 10 µM.
